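Step 1: Grow cells in 96-well plates. Step 2: Expose to compound for 48 hours at 5 concentrations. Step 3: Interpolate endpoints linearly; if unreached, use highest concentration. The concentration for 50% growth inhibition is given as GI50.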 Active and inactive are the calls of the source. Cut-off read from the data, not from the text of the source: active = GI50 up to about 1.1 µM and inactive = higher.
Key:
Assay in all cases: NCI tumour cell line growth inhibition, 48 h
[1] = tested on: HCC 2998
[2] = tested on: 786-0
[3] = tested on: HT-29
[4] = tested on: K562
[5] = tested on: MOLT-4
[6] = tested on: SK-OV-3
[7] = tested on: UACC-257
[8] = tested on: NCI-H460
[9] = tested on: LOX IMVI
[10] = tested on: COLO 205
[11] = tested on: ACHN
[12] = tested on: RPMI-8226
[13] = tested on: U-251
[14] = tested on: KM12
[15] = tested on: IGROV-1
[16] = tested on: EKVX
[17] = tested on: BT-549
[18] = tested on: NCI-H226
[19] = tested on: OVCAR-3
[20] = tested on: SNB-75

Measured: GI50

COC(=O)c1c(C#N)c(N)nc2c1CCC2
inactive: [1] > 100 µM | [2] > 100 µM | [3] > 100 µM | [4] > 100 µM | [5] > 100 µM | [6] > 100 µM | [7] > 100 µM | [8] > 100 µM | [9] > 100 µM | [10] > 100 µM | [11] > 100 µM | [12] > 100 µM | [13] > 100 µM | [14] > 100 µM | [15] > 100 µM | [16] > 100 µM | [17] > 100 µM | [18] > 100 µM

CCOC(=O)c1c(SCCO)n(-c2ccccc2)c(=S)n(-c2ccccc2)c1=O
inactive: [2] > 100 µM | [3] > 100 µM | [4] > 100 µM | [5] > 100 µM | [19] > 100 µM | [6] > 100 µM | [7] > 100 µM | [8] > 100 µM | [9] > 100 µM | [10] > 100 µM | [11] > 100 µM | [12] > 100 µM | [13] > 100 µM | [14] > 100 µM | [15] > 100 µM | [20] > 100 µM | [16] > 100 µM | [17] > 100 µM | [18] > 100 µM

COc1ccccc1OCC(=N/NC(=O)c1ccncc1)/N=C/c1ccncc1
inactive: [1] > 100 µM | [2] > 100 µM | [3] > 100 µM | [4] > 100 µM | [5] > 100 µM | [19] > 100 µM | [6] > 100 µM | [7] > 100 µM | [8] > 100 µM | [9] > 100 µM | [10] > 100 µM | [11] > 100 µM | [12] > 100 µM | [13] > 100 µM | [14] > 100 µM | [15] > 100 µM | [16] > 100 µM | [17] > 100 µM | [18] > 100 µM

CC1CN(CCO)CCN1c1ccccc1 (configuration not stated)
inactive: [2] > 100 µM | [3] > 100 µM | [4] > 100 µM | [5] 1.41 µM | [19] > 100 µM | [6] > 100 µM | [7] > 100 µM | [8] > 100 µM | [9] > 100 µM | [10] > 100 µM | [11] > 100 µM | [12] > 100 µM | [13] > 100 µM | [14] > 100 µM | [15] > 100 µM | [20] > 100 µM | [16] > 100 µM | [17] > 100 µM | [18] > 100 µM

O[C@@H]1C=C[C@]23CCN(Cc4cc5c(cc42)OCO5)[C@@H]3C1
inactive: [2] 56.8 µM | [3] 51.5 µM | [4] > 100 µM | [5] 61.1 µM | [19] > 100 µM | [6] > 100 µM | [7] 92 µM | [8] 42.7 µM | [9] 48.4 µM | [10] 44.8 µM | [11] 35.2 µM | [12] 50.7 µM | [13] 41.2 µM | [14] 52.5 µM | [15] 44.3 µM | [20] 20.5 µM | [16] 87.1 µM | [17] > 100 µM | [18] > 100 µM

C=Cc1c(C)c(O)cc2c1-c1ccc(O)c(C)c1CC2
inactive: [1] 19 µM | [2] 15.8 µM | [3] 23.7 µM | [5] 11.6 µM | [19] 25.8 µM | [6] 17 µM | [7] 14.8 µM | [8] 20.1 µM | [9] 16.1 µM | [10] 19.3 µM | [11] 29.4 µM | [12] 22.4 µM | [13] 14.3 µM | [14] 14.3 µM | [15] 16.6 µM | [16] 1.97 µM | [17] 19.5 µM | [18] 17.3 µM

— ChEMBL document CHEMBL1201862, “PubChem BioAssay data set” (2004)
